From patent publication US10294246B2, “Substituted boronic acids and boronate esters as immunoproteasome inhibitors” (MERCK PATENT GMBH, priority 2014, dated 2019) come the findings set out here.

The target in test [1] is human immunoproteasome (LMP7) (Homo sapiens (Human), UniProt P28062). The test can be described thus: Determination of LMP7 activity (fluorescence intensity assay, Suc-LLVY-AMC). The conditions noted are these: for Selectivity LMP7 vs Beta5: LMP7 versus Beta5; for IC50: purified human immunoproteasome 0.25 nM, Suc-LLVY-AMC 40 μM. The test is classed as biochemical. As for the experimental part:
Determination of LMP7 Activity:
Measurement of LMP7 inhibition is performed in 384 well format based on fluorescence intensity assay.
Purified human immunoproteasome (0.25 nM) and serial diluted compounds in DMSO (range of concentrations from 30 μM to […]) or controls are incubated for 20 minutes at 25° C. in assay buffer containing 50 mM Tris pH 7.4, 0.03% SDS, 1 mM EDTA and 1% DMSO. The reaction is initiated by the addition of the fluorogenic peptide substrate, Suc-LLVY-AMC (Bachem 1-1395), at a concentration of 40 μM. After 60 minutes of incubation at 37° C., fluorescence intensity is measured at λex=350 nm and λem=450 nm with a fluorescence reader (Perkin Elmer Envision reader or equivalent).

In test [2] the target is human constitutive proteasome (Beta5) (Homo sapiens (Human), UniProt P28074). The test can be described thus: Determination of Beta5 activity (fluorescence intensity assay, Suc-LLVY-AMC). The test is classed as biochemical. The conditions noted are these: purified human constitutive proteasome 1.25 nM, Suc-LLVY-AMC 40 μM. On the procedure:
Determination of Beta5 Activity:
Measurement of Beta5 inhibition is performed in 384 well format based on fluorescence intensity assay.
Purified human constitutive proteasome (1.25 nM) and serial diluted compounds in DMSO (range of concentrations from 30 μM to […]) or controls are incubated for 20 minutes at 25° C. in assay buffer containing 50 mM Tris pH 7.4, 0.03% SDS, 1 mM EDTA and 1% DMSO. The reaction is initiated by the addition of the fluorogenic peptide substrate, Suc-LLVY-AMC (Bachem 1-1395), at a concentration of 40 μM. After 60 minutes of incubation at 37° C., fluorescence intensity is measured at λex=350 nm and λem=450 nm with a fluorescence reader (Perkin Elmer Envision reader or equivalent).

Structures are written as SMILES.

For `COc1ccc(CCC(=O)N[C@@H](CC2COc3c2ccc(C)c3C)B(O)O)nc1` (stereo partly drawn) [Compound No. 102, [(1R)-2-(6,7-dimethyl-2,3-dihydrobenzofuran-3-yl)-1-[3-(5-methoxy-2-pyridyl)propanoylamino]ethyl]boronic acid], the “Selectivity LMP7 vs Beta5” value in test [1] is on record as “+++++ (Selectivity ≥ 100)”. In addition, the IC50 in test [1] is 50 to 500 nM; in test [2], > 5000 nM.
On to `C[C@H](C(=O)N[C@@H](Cc1coc2ccccc12)B(O)O)c1ccccc1` [Compound No. 37, [(1R)-2-(benzofuran-3-yl)-1-[[(2S)-2-phenylpropanoyl]amino]ethyl]-boronic acid], for which, in test [1], the “Selectivity LMP7 vs Beta5” value is on record as “+++++ (Selectivity ≥ 100)”. For the same molecule, the IC50 in test [2] fell in the range of 500 to 5000 nM.
For `O=C(N[C@@H](Cc1coc2ccccc12)B(O)O)C(c1ccccc1)c1ccccc1` [Compound No. 68, [(1R)-2-(benzofuran-3-yl)-1-[(2,2-diphenylacetyl)amino]ethyl]boronic acid], in test [1], the “Selectivity LMP7 vs Beta5” value was “+++++ (Selectivity ≥ 100)” and the IC50 was < 50 nM. In addition, the half-inhibitory concentration (IC50) in test [2] was 500 to 5000 nM.
The like results for `COc1ccc(CCC(=O)N[C@@H](CC2COc3c(C)cccc32)B(O)O)nc1` (stereo partly drawn) [Compound No. 86, [(1R)-1-[3-(5-methoxy-2-pyridyl)propanoylamino]-2-(7-methyl-2,3-dihydrobenzofuran-3-yl)ethyl]boronic acid] were, in that order, “+++++ (Selectivity ≥ 100)”, < 50 nM and > 5000 nM.
With `COc1ccc(CC(=O)N[C@@H](C[C@H]2COc3ccccc32)B(O)O)cc1` [Compound No. 115, [(1R)-2-[(3R)-2,3-dihydrobenzofuran-3-yl]-1-[[2-(4-methoxyphenyl)-acetyl]amino]ethyl]boronic acid], in test [1], the “Selectivity LMP7 vs Beta5” value was “+++++ (Selectivity ≥ 100)” and the half-inhibitory concentration (IC50) is < 50 nM. The IC50 in test [2] is > 5000 nM.
For `COc1ccc(CC(=O)N[C@@H](C[C@@H]2COc3c(OC)cccc32)B(O)O)cc1` [Compound No. 120, [(1R)-2-[(3S)-7-methoxy-2,3-dihydrobenzofuran-3-yl]-1-[[2-(4-methoxyphenyl)acetyl]amino]ethyl]boronic acid], in that order: “+++++ (Selectivity ≥ 100)”, < 50 nM and 500 to 5000 nM.
The like results for `O=C(COc1ncc(Cl)cc1Cl)N[C@@H](Cc1ccccc1)B(O)O` [Compound No. 1, [(1R)-1-[[2-[(3,5-dichloro-2-pyridyl)oxy]acetyl]amino]-2-phenyl-ethyl]boronic acid] were, in that order, “++ (10 ≤ Selectivity < 50)”, < 50 nM and 50 to 500 nM.
Consider `O=C(Cc1ccccn1)NC(Cc1coc2ccccc12)B(O)O` (centres unmarked) [Compound No. 112, [2-(benzofuran-3-yl)-1-[[2-(2-pyridyl)acetyl]amino]ethyl]boronic acid], for which, in test [1], the “Selectivity LMP7 vs Beta5” value is recorded as “+++++ (Selectivity ≥ 100)” and the IC50 is < 50 nM. This molecule gave an IC50 in test [2] of 500 to 5000 nM.
For `Cc1cccc2c1OC[C@H]2C[C@H](NC(=O)Cc1ccccc1C#N)B(O)O` [Compound No. 130, [(1R)-1-[[2-(2-cyanophenyl)acetyl]amino]-2-[(3S)-7-methyl-2,3-dihydrobenzofuran-3-yl]ethyl]boronic acid], in that order: “+++++ (Selectivity ≥ 100)”, < 50 nM and > 5000 nM.
For `N#Cc1ccccc1CC(=O)N[C@@H](Cc1coc2ccccc12)B(O)O` [Compound No. 90, [(1R)-2-(benzofuran-3-yl)-1-[[2-(2-cyanophenyl)acetyl]amino]ethyl]-boronic acid], in that order: “+++++ (Selectivity ≥ 100)”, < 50 nM and 500 to 5000 nM.
Turning to `CCOc1ccc(CC(=O)N[C@@H](Cc2coc3c(Cl)cccc23)B(O)O)nc1` [Compound No. 113, [(1R)-2-(7-chlorobenzofuran-3-yl)-1-[[2-(5-ethoxy-2-pyridyl)acetyl]amino]ethyl]boronic acid], in test [1], the “Selectivity LMP7 vs Beta5” value was “+++++ (Selectivity ≥ 100)” and the IC50 is < 50 nM. Also, the IC50 in test [2] was 500 to 5000 nM.
Turning to `O=C(Cc1ccccc1)NC(Cc1coc2c(F)cccc12)B(O)O` (centres unmarked) [Compound No. 121, [2-(7-fluorobenzofuran-3-yl)-1-[(2-phenylacetyl)amino]ethyl]boronic acid], in test [1], the “Selectivity LMP7 vs Beta5” value is on record as “+++++ (Selectivity ≥ 100)” and the IC50 is < 50 nM. In test [2], the IC50 lay in the range of 500 to 5000 nM.
The like results for `COCC(=O)Nc1ccc(CC(=O)N[C@@H](Cc2ccc(C)cc2C)B(O)O)cc1` [Compound No. 47, [(1R)-2-(2,4-dimethylphenyl)-1-[[2-[4-[(2-methoxyacetyl)amino]-phenyl]acetyl]amino]ethyl]boronic acid] were, in that order, “+++++ (Selectivity ≥ 100)”, 50 to 500 nM and > 5000 nM.
The like results for `O=C(N[C@@H](Cc1coc2ccccc12)B(O)O)[C@@H](CO)c1ccccc1` [Compound No. 59, [(1R)-2-(benzofuran-3-yl)-1-[[(2R)-3-hydroxy-2-phenyl-propanoyl]-amino]ethyl]boronic acid] were, in that order, “++++ (70 ≤ Selectivity < 100)”, < 50 nM and 50 to 500 nM.
The like results for `COc1cccc2c(C[C@H](NC(=O)Cc3ccccc3)B(O)O)coc12` [Compound No. 92, [(1R)-2-(7-methoxybenzofuran-3-yl)-1-[(2-phenylacetyl)amino]ethyl]-boronic acid] were, in that order, “+++++ (Selectivity ≥ 100)”, < 50 nM and 50 to 500 nM.
`COc1ccc(CC(=O)N[C@H](C[C@H]2COc3ccccc32)B(O)O)cc1` [Compound No. 118, [(1S)-2-[(3R)-2,3-dihydrobenzofuran-3-yl]-1-[[2-(4-methoxyphenyl)-acetyl]amino]ethyl]boronic acid]: in test [1], the “Selectivity LMP7 vs Beta5” value was “+++++ (Selectivity ≥ 100)”. Also, the 50% inhibitory concentration (IC50) was 50 to 500 nM in test [1] and > 5000 nM in test [2].
For `C[C@H](C(=O)N[C@@H](C[C@H]1COc2ccccc21)B(O)O)c1ccccc1C(=O)N(C)C` [Compound No. 106, [(1R)-2-[(3R)-2,3-dihydrobenzofuran-3-yl]-1-[[(2S)-2-[2-(dimethylcarbamoyl)phenyl]propanoyl]amino]ethyl]boronic acid], in that order: “+++++ (Selectivity ≥ 100)”, < 50 nM and > 5000 nM.
The like results for `COc1cc(CC(=O)N[C@@H](Cc2coc3ccccc23)B(O)O)cc(OC)c1OC` [Compound No. 52, [(1R)-2-(benzofuran-3-yl)-1-[[2-(3,4,5-trimethoxyphenyl)acetyl]amino]-ethyl]boronic acid] were, in that order, “++ (10 ≤ Selectivity < 50)”, < 50 nM and 50 to 500 nM.
The like results for `O=C(Cc1ccccc1)N[C@@H](CC1COc2ccccc21)B(O)O` (stereo partly drawn) [Compound No. 74, [(1R)-2-(2,3-dihydrobenzofuran-3-yl)-1-[(2-phenylacetyl)amino]-ethyl]boronic acid] were, in that order, “+++++ (Selectivity ≥ 100)”, < 50 nM and 500 to 5000 nM.
For `O=C(Cc1cccnc1)N[C@@H](Cc1coc2ccccc12)B(O)O` [Compound No. 8, [(1R)-2-(benzofuran-3-yl)-1-[[2-(3-pyridyl)acetyl]amino]ethyl]boronic acid], the “Selectivity LMP7 vs Beta5” value in test [1] is recorded as “+++ (50 ≤ Selectivity < 70)”. Further, the figures for the half-inhibitory concentration (IC50) in test [1] and in test [2] were < 50 nM and 50 to 500 nM, respectively.
The like results for `Cc1cccc2c1OCC2C[C@H](NC(=O)Cc1ccccc1)B(O)O` (stereo partly drawn) [Compound No. 77, [(1R)-2-(7-methyl-2,3-dihydrobenzofuran-3-yl)-1-[(2-phenylacetyl)-amino]ethyl]boronic acid] were, in that order, “+++++ (Selectivity ≥ 100)”, < 50 nM and 500 to 5000 nM.
Take `O=C(Cc1ccccc1)N[C@@H](Cc1cc2ccccc2o1)B(O)O` [Compound No. 110, [(1R)-2-(benzofuran-2-yl)-1-[(2-phenylacetyl)amino]ethyl]boronic acid]: in test [1], the “Selectivity LMP7 vs Beta5” value is given as “++++ (70 ≤ Selectivity < 100)” and the IC50 lay in the range of 50 to 500 nM. Also, in test [2], the IC50 was > 5000 nM.
With `Cc1c(Cl)ccc2c(C[C@H](NC(=O)Cc3ccccc3)B(O)O)coc12` [Compound No. 126, [(1R)-2-(6-chloro-7-methyl-benzofuran-3-yl)-1-[(2-phenylacetyl)-amino]ethyl]boronic acid], in test [1], the “Selectivity LMP7 vs Beta5” value is reported as “+++++ (Selectivity ≥ 100)” and the IC50 was < 50 nM. In addition, the IC50 in test [2] lay within 500 to 5000 nM.

Usually IC50 stands for the concentration at which inhibition is half-maximal.
